Molecular target: T1, human recombinant dopamine D4.2 receptor (Homo sapiens, UniProt P21917, DEL265-296)
T1 construct: expressed in transfected cells
T1 sequence (P21917 with tags, fused parts or gaps DEL265-296): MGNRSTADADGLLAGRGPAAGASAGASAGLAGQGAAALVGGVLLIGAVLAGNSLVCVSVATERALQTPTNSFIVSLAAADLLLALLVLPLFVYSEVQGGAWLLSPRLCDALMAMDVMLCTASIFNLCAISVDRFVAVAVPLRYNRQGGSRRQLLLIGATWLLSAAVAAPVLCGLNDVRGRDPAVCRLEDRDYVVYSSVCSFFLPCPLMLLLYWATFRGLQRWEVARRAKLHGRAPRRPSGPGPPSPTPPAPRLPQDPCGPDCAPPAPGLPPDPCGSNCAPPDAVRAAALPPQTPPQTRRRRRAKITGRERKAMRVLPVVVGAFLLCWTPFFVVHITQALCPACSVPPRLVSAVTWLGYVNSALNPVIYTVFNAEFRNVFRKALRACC
Assay: [3H]spiperone receptor binding assay, human dopamine D4.2, CHO K1 cell membranes

Row | Ki [nM] | SMILES
1 | 2.84 | Cc1ccc(C2CCN(Cc3ccc4c(c3)NC(=O)CO4)CC2)cc1 [Example 16, 6-(4-p-Tolyl-piperidin-1-ylmethyl)-4H-benzo[1,4]oxazin-3-one]
2 | 173 | O=C1COc2ccc(CN3CCN(c4ccc(C(F)(F)F)cc4)CC3)cc2N1 [Example 31, 6-[4-(4-Trifluoromethyl-phenyl)-piperazin-1-ylmethyl]-4H-benzo[1,4]oxazin-3-one]

From US6177422A (Warner-Lambert Company, priority 1998, dated 2001)
